Results: PubChem BioAssay AID256 (DTP/NCI, 2004)
Values joined by “and” are separate entries in the source; they are usually repeats but may differ in a detail not shown here. Identical values can stand only once. Inconclusive results and toxic doses are left out. How the source made its calls: active means survival T/C of 150% or more; inactive means T/C below 125% in these data.

Tested on: CD2F1 mice, L1210 leukemia ip, survival T/C
Assay: NCI In Vivo Anticancer Drug Screen. Data for tumor model L1210 Leukemia (intraperitoneal) in CD2F1 (CDF1) mice
Conditions: higher = longer survival
Outline: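 Antitumor effect is scored in animals hosting a serially transplanted tumor. Values compare compound-dosed animals against vehicle-only controls as a simple quotient.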

[1] = endpoint: mean survival time, dose: 100.0 mg/kg/injection, schedule: Q04DX003 (ip), vehicle: saline with Tween-80
[2] = endpoint: mean survival time, dose: 200.0 mg/kg/injection, schedule: Q04DX003 (ip), vehicle: saline with Tween-80
[3] = endpoint: mean survival time, dose: 400.0 mg/kg/injection, schedule: Q04DX003 (ip), vehicle: saline with Tween-80
[4] = endpoint: mean survival time, dose: 100.0 mg/kg/injection, schedule: Q01DX009 (ip), vehicle: saline with Tween-80
[5] = endpoint: mean survival time, dose: 200.0 mg/kg/injection, schedule: Q01DX009 (ip), vehicle: saline with Tween-80

Measured: T/C

O=C(COc1ccccc1)NCc1ccccc1Cl
inactive: [1] 100 % of control | [2] 103 % of control | [3] 91 % of control

CC[CH2][Sn]([Cl])([Cl])[CH2]CC.Oc1ccccc1C=NCCN=Cc1ccccc1O
inactive: endpoint: mean survival time, dose: 0.62 mg/kg/injection, schedule: Q01DX009 (ip), vehicle: gum acacia 100 % of control | endpoint: mean survival time, dose: 1.25 mg/kg/injection, schedule: Q01DX009 (ip), vehicle: gum acacia 100 % of control | endpoint: mean survival time, dose: 2.5 mg/kg/injection, schedule: Q01DX009 (ip), vehicle: gum acacia 97 % of control and 103 % of control | endpoint: mean survival time, dose: 3.3 mg/kg/injection, schedule: Q01DX009 (ip), vehicle: saline with Tween-80 103 % of control | endpoint: mean survival time, dose: 5.0 mg/kg/injection, schedule: Q01DX001 (ip), vehicle: saline with Tween-80 94 % of control | endpoint: mean survival time, dose: 5.0 mg/kg/injection, schedule: Q01DX009 (ip), vehicle: gum acacia 104 % of control and 108 % of control | endpoint: mean survival time, dose: 5.0 mg/kg/injection, schedule: Q01DX009 (ip), vehicle: saline with Tween-80 92 % of control | endpoint: mean survival time, dose: 7.5 mg/kg/injection, schedule: Q01DX009 (ip), vehicle: saline with Tween-80 95 % of control | endpoint: mean survival time, dose: 10.0 mg/kg/injection, schedule: Q01DX001 (ip), vehicle: saline with Tween-80 95 % of control | endpoint: mean survival time, dose: 20.0 mg/kg/injection, schedule: Q01DX001 (ip), vehicle: saline with Tween-80 96 % of control

c1ccc(C2NNC(c3ccccc3)NN2)cc1 (stereo not given)
inactive: endpoint: mean survival time, dose: 100.0 mg/kg/injection, schedule: Q01DX001 (ip), vehicle: other 100 % of control | endpoint: mean survival time, dose: 200.0 mg/kg/injection, schedule: Q01DX001 (ip), vehicle: other 97 % of control | endpoint: mean survival time, dose: 400.0 mg/kg/injection, schedule: Q01DX001 (ip), vehicle: other 92 % of control

COc1cc([C@@H]2c3cc4c(c(O)c3C[C@H]3COC(=O)[C@@H]32)OCO4)cc(OC)c1OC
inactive: endpoint: mean survival time, dose: 10.0 mg/kg/injection, schedule: Q04DX003 (ip), vehicle: saline 100 % of control | endpoint: mean survival time, dose: 20.0 mg/kg/injection, schedule: Q04DX003 (ip), vehicle: saline 108 % of control | endpoint: mean survival time, dose: 40.0 mg/kg/injection, schedule: Q04DX003 (ip), vehicle: saline 105 % of control | endpoint: mean survival time, dose: 80.0 mg/kg/injection, schedule: Q04DX003 (ip), vehicle: saline 121 % of control | endpoint: mean survival time, dose: 125.0 micrograms/kg/injection, schedule: Q01DX009 (ip), vehicle: saline 100 % of control | endpoint: mean survival time, dose: 250.0 micrograms/kg/injection, schedule: Q01DX009 (ip), vehicle: saline 108 % of control | endpoint: mean survival time, dose: 500.0 micrograms/kg/injection, schedule: Q01DX009 (ip), vehicle: saline 110 % of control | endpoint: mean survival time, dose: 2000.0 micrograms/kg/injection, schedule: Q01DX009 (ip), vehicle: saline 124 % of control | endpoint: mean survival time, dose: 4000.0 micrograms/kg/injection, schedule: Q01DX009 (ip), vehicle: saline 114 % of control

COc1ccc(C=C2C(=O)C=CC2=O)cc1OC
inactive: endpoint: mean survival time, dose: 5.0 mg/kg/injection, schedule: Q04DX002 (ip), vehicle: saline with Tween-80 103 % of control | endpoint: mean survival time, dose: 10.0 mg/kg/injection, schedule: Q04DX002 (ip), vehicle: saline with Tween-80 103 % of control

O=S(=O)(F)c1ccc(-c2cc(Cl)c3cc(F)ccc3n2)cc1
inactive: endpoint: mean survival time, dose: 100.0 mg/kg/injection, schedule: Q01DX001 (ip), vehicle: saline with Tween-80 98 % of control | endpoint: mean survival time, dose: 200.0 mg/kg/injection, schedule: Q01DX001 (ip), vehicle: saline with Tween-80 98 % of control | endpoint: mean survival time, dose: 400.0 mg/kg/injection, schedule: Q01DX001 (ip), vehicle: saline with Tween-80 94 % of control

Clc1ccc2nc(C(Cl)(Cl)Cl)nc(NCCN3CCCCC3)c2c1
inactive: endpoint: mean survival time, dose: 50.0 mg/kg/injection, schedule: Q01DX009 (ip), vehicle: saline with Tween-80 89 % of control | [4] 113 % of control | [5] 97 % of control | [2] 91 % of control

CCOC(=O)Nc1cc(Cl)c2nnn(C(=O)OCC)c2n1
inactive: endpoint: mean survival time, dose: 12.5 mg/kg/injection, schedule: Q01DX005 (ip), vehicle: water 105 % of control | endpoint: mean survival time, dose: 25.0 mg/kg/injection, schedule: Q01DX005 (ip), vehicle: water 98 % of control | endpoint: mean survival time, dose: 50.0 mg/kg/injection, schedule: Q01DX005 (ip), vehicle: water 96 % of control | endpoint: mean survival time, dose: 100.0 mg/kg/injection, schedule: Q01DX005 (ip), vehicle: water 105 % of control

Cc1ccc(C(=O)C(=O)c2ccc(C)cc2C)c(C)c1
inactive: endpoint: mean survival time, dose: 75.0 mg/kg/injection, schedule: Q01DX001 (ip), vehicle: other 94 % of control | endpoint: mean survival time, dose: 150.0 mg/kg/injection, schedule: Q01DX001 (ip), vehicle: other 87 % of control | endpoint: mean survival time, dose: 300.0 mg/kg/injection, schedule: Q01DX001 (ip), vehicle: other 94 % of control

CC[O+](CC)CC
inactive: endpoint: mean survival time, dose: 12.5 mg/kg/injection, schedule: Q04DX002 (ip), vehicle: saline 95 % of control | endpoint: mean survival time, dose: 25.0 mg/kg/injection, schedule: Q04DX002 (ip), vehicle: saline 91 % of control | endpoint: mean survival time, dose: 50.0 mg/kg/injection, schedule: Q04DX002 (ip), vehicle: saline 95 % of control

c1ccc2c(NCCCCCCCCNc3c4ccccc4nc4ccccc34)c3ccccc3nc2c1
inactive: endpoint: mean survival time, dose: 1.25 mg/kg/injection, schedule: Q01DX009 (ip), vehicle: Klucel (hydroxypropylcellulose) (HPC) 120 % of control | endpoint: mean survival time, dose: 2.5 mg/kg/injection, schedule: Q01DX009 (ip), vehicle: Klucel (hydroxypropylcellulose) (HPC) 114 % of control and 100 % of control | endpoint: mean survival time, dose: 5.0 mg/kg/injection, schedule: Q01DX009 (ip), vehicle: Klucel (hydroxypropylcellulose) (HPC) 119 % of control and 120 % of control and 111 % of control | endpoint: mean survival time, dose: 10.0 mg/kg/injection, schedule: Q01DX009 (ip), vehicle: Klucel (hydroxypropylcellulose) (HPC) 109 % of control and 111 % of control | endpoint: mean survival time, dose: 20.0 mg/kg/injection, schedule: Q01DX009 (ip), vehicle: Klucel (hydroxypropylcellulose) (HPC) 117 % of control

CNC(=O)Oc1c(Cl)c(C(Cl)(Cl)Cl)nc2ccccc12
inactive: endpoint: mean survival time, dose: 25.0 mg/kg/injection, schedule: Q04DX003 (ip), vehicle: saline with Tween-80 96 % of control | endpoint: mean survival time, dose: 50.0 mg/kg/injection, schedule: Q04DX003 (ip), vehicle: saline with Tween-80 97 % of control | [1] 89 % of control

c1ccc2c(c1)c1ccccc1c1nc3c(nc21)CCCC3
inactive: [1] 102 % of control | [2] 96 % of control | [3] 96 % of control

CCCCCCCCCCCCCCCCS(=O)CC(O)COC(=O)c1ccc(C(=O)OCC(O)CS(=O)CCCCCCCCCCCCCCCC)cc1 (stereo not given)
inactive: endpoint: mean survival time, dose: 12.5 mg/kg/injection, schedule: Q01DX009 (ip), vehicle: saline + Tween-80 + alcohol 96 % of control | endpoint: mean survival time, dose: 12.5 mg/kg/injection, schedule: Q01DX009 (ip), vehicle: saline + alcohol 91 % of control | endpoint: mean survival time, dose: 25.0 mg/kg/injection, schedule: Q01DX009 (ip), vehicle: saline + Tween-80 + alcohol 88 % of control | endpoint: mean survival time, dose: 25.0 mg/kg/injection, schedule: Q01DX009 (ip), vehicle: saline + alcohol 105 % of control | endpoint: mean survival time, dose: 50.0 mg/kg/injection, schedule: Q01DX009 (ip), vehicle: saline + Tween-80 + alcohol 90 % of control | endpoint: mean survival time, dose: 50.0 mg/kg/injection, schedule: Q01DX009 (ip), vehicle: saline + alcohol 105 % of control | endpoint: mean survival time, dose: 100.0 mg/kg/injection, schedule: Q01DX009 (ip), vehicle: saline + Tween-80 + alcohol 107 % of control | endpoint: mean survival time, dose: 100.0 mg/kg/injection, schedule: Q01DX009 (ip), vehicle: saline + alcohol 91 % of control | endpoint: mean survival time, dose: 200.0 mg/kg/injection, schedule: Q01DX009 (ip), vehicle: saline + Tween-80 + alcohol 107 % of control | endpoint: mean survival time, dose: 200.0 mg/kg/injection, schedule: Q01DX009 (ip), vehicle: saline + alcohol 97 % of control | endpoint: mean survival time, dose: 400.0 mg/kg/injection, schedule: Q01DX009 (ip), vehicle: saline + alcohol 105 % of control

CCOP(=O)(OCC)c1ccccc1
inactive: endpoint: mean survival time, dose: 100.0 mg/kg/injection, schedule: Q04DX002 (ip), vehicle: saline 96 % of control | endpoint: mean survival time, dose: 200.0 mg/kg/injection, schedule: Q04DX002 (ip), vehicle: saline 96 % of control | endpoint: mean survival time, dose: 400.0 mg/kg/injection, schedule: Q04DX002 (ip), vehicle: saline 112 % of control

O=C(c1ccc(Cl)cc1)C1CC(Br)C(Br)CC1C(=O)c1ccc(Cl)cc1 (stereo not given)
inactive: [4] 96 % of control | [1] 101 % of control | [5] 98 % of control | [2] 98 % of control | endpoint: mean survival time, dose: 400.0 mg/kg/injection, schedule: Q01DX009 (ip), vehicle: saline with Tween-80 100 % of control | [3] 98 % of control

COc1ccn(C2OCCC(OC(C)=O)C2O)c(=O)n1 (stereo not given)
inactive: endpoint: median survival time, dose: 12.5 mg/kg/injection, schedule: Q01DX005 (ip), vehicle: alkali diluted with saline 107 % of control | endpoint: median survival time, dose: 25.0 mg/kg/injection, schedule: Q01DX005 (ip), vehicle: alkali diluted with saline 120 % of control | endpoint: median survival time, dose: 50.0 mg/kg/injection, schedule: Q01DX005 (ip), vehicle: alkali diluted with saline 120 % of control | endpoint: median survival time, dose: 100.0 mg/kg/injection, schedule: Q01DX005 (ip), vehicle: alkali diluted with saline 102 % of control | endpoint: median survival time, dose: 200.0 mg/kg/injection, schedule: Q01DX005 (ip), vehicle: alkali diluted with saline 109 % of control
